Values of other authors as cited in US8455021B2, “Composition for prophylaxis or treatment of urinary system infection and method thereof” (priority 2006, dated 2013).

Assays:
MMP-2 = conditions: Yu Cai et al., J pharm Pharmacol. 2003
MMP-9 = MMP-9 (Homo sapiens, UniProt P14780); conditions: Yu Cai et al., J pharm Pharmacol. 2003
Sequence of MMP-9 (P14780 94-707, species assumed): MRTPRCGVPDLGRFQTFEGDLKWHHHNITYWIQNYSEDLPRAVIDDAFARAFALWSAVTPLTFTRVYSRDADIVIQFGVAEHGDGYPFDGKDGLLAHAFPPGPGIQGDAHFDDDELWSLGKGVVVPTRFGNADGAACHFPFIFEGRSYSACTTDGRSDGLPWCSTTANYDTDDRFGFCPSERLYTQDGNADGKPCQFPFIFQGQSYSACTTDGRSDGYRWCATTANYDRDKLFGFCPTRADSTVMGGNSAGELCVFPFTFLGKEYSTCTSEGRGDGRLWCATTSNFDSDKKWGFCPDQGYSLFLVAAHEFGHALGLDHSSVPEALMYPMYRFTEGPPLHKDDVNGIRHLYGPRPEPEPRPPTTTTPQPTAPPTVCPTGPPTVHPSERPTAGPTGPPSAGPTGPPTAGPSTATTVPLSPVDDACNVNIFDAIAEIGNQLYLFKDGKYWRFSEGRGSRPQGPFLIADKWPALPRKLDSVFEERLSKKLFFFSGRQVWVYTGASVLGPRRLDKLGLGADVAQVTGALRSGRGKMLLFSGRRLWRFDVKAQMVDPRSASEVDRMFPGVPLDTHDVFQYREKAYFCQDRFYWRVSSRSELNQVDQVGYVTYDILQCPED

For `C[C@@H]1O[C@@H](O[C@H]2C(=O)c3c(O)cc(O)cc3O[C@@H]2c2ccc(O)c(O)c2)[C@H](O)[C@H](O)[C@H]1O` [astilbin], the “activity of matrix metalloproteinase MMP-2” value (MMP-2) is given as “inhibits the activity” and the “activity of matrix metalloproteinase MMP-9” value (MMP-9) is given as “inhibits the activity”.
